Experiments:
[1] = tested on: Plutella xylostella (Diamond back moth) ryanodine receptor, containing the G4946E resistance mutation; experiment: In vitro calcium fluorescence assay (Fluo-8 NW, FDSS) in human embryonic kidney cells expressing the ryanodine receptor; type: cell-based; settings: table; EC50 (compound)/EC50 (cyantraniliprole); G4946E RyR in HEK cells
Description: Human embryonic kidney cells expressing the Plutella xylostella (Diamond back moth) ryanodine receptor, containing the G4946E resistance mutation, are loaded with Fluo-8 No Wash (NW) calcium-sensitive dye which responds by fluorescence to a change in intracellular calcium (e.g. stimulated by activation of ryanodine receptor). Test compounds are added in 10 rates to a 384-well plate containing dye-loaded cells and the fluorescent signal is measured using the Hamamatsu FDSS (Functional Drug Screening system). Dose-response curves are plotted to estimate the EC50. EC50 are normalized against an in-assay reference standard (cyantraniliprole) to address inter-assay variability. The ratio for a given compound is then obtained by the following formula:
REC50=EC50 (compound)/EC50 (cyantraniliprole).

[2] = tested on: Resistant Plutella xylostella R1 (multi-resistant larvae having the G4946E resistance mutation); experiment: Resistant Plutella xylostella R1 (Diamond back moth) larvicide L3, feeding/contact, sprayed Chinese cabbage leaves; type: in vivo; settings: Plutella xylostella, 96 h, read-out: control of the resistant strain of Plutella xylostella R1
Description: Resistant Plutella xylostella R1 (Diamond back moth) larvicide L3, feeding/contact Chinese cabbage plants were sprayed with diluted test solutions in an application chamber. Cut off leaves were placed into petri dishes with wetted filter paper and infested 1 day after application with 10 L3 multi-resistant Plutella xylostella larvae having the G4946E resistance mutation.
Samples were assessed 4 days after infestation for mortality and growth regulation.
Chlorantraniliprole was used as standard and a resistance factor of 146 was obtained for this strain.
Plutella xylostella resistant strain R1 originally collected from Taiwan in 2012 that carries the RyR mutation G4946E conferring resistance to diamides. The strain is reared on cabbage plants (Brassica aleracea) and selected approximately every two weeks with chlorantraniliprole.

[3] = tested on: Resistant Plutella xylostella R4 (carries the RyR mutation G4946E); experiment: Resistant Plutella xylostella R4 (Diamond back moth) larvicide L1, feeding/contact, artificial diet in 24-well plates; type: in vivo; settings: Plutella xylostella, 192 h, read-out: control of the resistant strain of Plutella xylostella R4
Description: Resistant Plutella xylostella R4 (Diamond back moth) larvicide L1, feeding/contact 24-well microtiter plates with artificial diet were treated with aqueous test solutions prepared from 10′000 ppm DMSO stock solutions by pipetting. After drying, around 30 Plutella eggs were pipetted through a plastic stencil onto a gel blotting paper and the plate was closed with it. The samples were assessed for mortality in comparison to untreated samples 8 days after infestation.
Chlorantraniliprole was used as standard and a resistance factor of 242 was obtained for this strain
Plutella xylostella resistant strain R4 originated in the lab in 2021 from crossing the R1 strain with a lab-reared susceptible P. xylostella strain (SUS). R4 can be reared and tested on artificial diet and also carries the RyR mutation G4946E conferring resistance to diamides. The strain is selected approximately every two weeks with chlorantraniliprole. The following compounds, according to the present invention, gave at least 80% control of the resistant strain of Plutella xylostella R4 at 50 ppm or below: P11, P18, P26, P31, P33, P34, P36, P38, P42, P43, P46, P49, P50, P52, P56, P58, P60, P61, P63, P64, P65, P66, P67, P73, P76, P84, P97, P99, P102, P105.

| SMILES | REC50 (Compound of the invention) [1] | pest or weed control at 50 µg/mL [2] [%] | pest or weed control at 50 µg/mL [3] [%] |
| --- | --- | --- | --- |
| Cc1cc(Cl)cc(C(N)=O)c1NC(=O)c1cc(OCC(F)(F)C(F)(F)F)nn1-c1ncccc1Cl [Compound P8, N-(2-carbamoyl-4-chloro-6-methyl-phenyl)-2-(3-chloro-2-pyridyl)-5-(2,2,3,3,3-pentafluoropropoxy)pyrazole-3-carboxamide] | 0.14 | ≥ 80 | – |
| COc1cc(C(=O)Nc2c(C)cc(Cl)cc2C(N)=O)n(-c2ncccc2Cl)n1 [Compound P9, N-(2-carbamoyl-4-chloro-6-methyl-phenyl)-2-(3-chloro-2-pyridyl)-5-methoxy-pyrazole-3-carboxamide] | 0.37 | ≥ 80 | – |
| Cc1cc(Cl)cc(C(N)=O)c1NC(=O)c1cc(Cn2nnnc2-c2ccc(C(F)(F)F)cc2)nn1-c1ncccc1Cl [Compound P15, N-(2-carbamoyl-4-chloro-6-methyl-phenyl)-2-(3-chloro-2-pyridyl)-5-[[5-[4-(trifluoromethyl)phenyl]tetrazol-1-yl]methyl]pyrazole-3-carboxamide] | – | ≥ 80 | – |
| Cc1cc(Cl)cc(C(N)=O)c1NC(=O)c1cc(Cn2ncc(C(F)(F)F)n2)nn1-c1ncccc1Cl [Compound P19, N-(2-carbamoyl-4-chloro-6-methyl-phenyl)-2-(3-chloro-2-pyridyl)-5-[[4-(trifluoromethyl)triazol-2-yl]methyl]pyrazole-3-carboxamide] | – | ≥ 80 | – |
| Cc1cc(Cl)cc(C(N)=O)c1NC(=O)c1cc(Cn2cc(C(F)(F)F)nn2)nn1-c1ncccc1Cl [Compound P20, N-(2-carbamoyl-4-chloro-6-methyl-phenyl)-2-(3-chloro-2-pyridyl)-5-[[4-(trifluoromethyl)triazol-1-yl]methyl] pyrazole-3-carboxamide] | – | ≥ 80 | – |
| Cc1cc(Cl)cc(C(N)=O)c1NC(=O)c1cc(OC(F)F)nn1-c1ncccc1Cl [Compound P21, N-(2-carbamoyl-4-chloro-6-methyl-phenyl)-2-(3-chloro-2-pyridyl)-5-(difluoromethoxy)pyrazole-3-carboxamide] | 0.25 | ≥ 80 | – |
| Cc1cc(Cl)cc(C(N)=O)c1NC(=O)c1cc(C(F)F)nn1-c1ncccc1Cl [Compound P22, N-(2-carbamoyl-4-chloro-6-methyl-phenyl)-2-(3-chloro-2-pyridyl)-5-(difluoromethyl)pyrazole-3-carboxamide] | – | ≥ 80 | – |
| Cc1cc(Cl)cc(C(N)=O)c1NC(=O)c1cc(OCC(F)(F)F)nn1-c1ncccc1Cl [Compound P23, N-(2-carbamoyl-4-chloro-6-methyl-phenyl)-2-(3-chloro-2-pyridyl)-5-(2,2,2-trifluoroethoxy)pyrazole-3-carboxamide] | 0.17 | ≥ 80 | – |
| Cc1cc(Cl)cc(C(N)=O)c1NC(=O)c1cc(Br)nn1-c1ncccc1Cl [Compound P24, 5-bromo-N-(2-carbamoyl-4-chloro-6-methyl-phenyl)-2-(3-chloro-2-pyridyl)pyrazole-3-carboxamide] | 0.18 | ≥ 80 | – |
| Cc1cc(Cl)cc(C(N)=O)c1NC(=O)c1cc(C(F)(F)F)nn1-c1ncccc1Cl [Compound P25, N-(2-carbamoyl-4-chloro-6-methyl-phenyl)-2-(3-chloro-2-pyridyl)-5-(trifluoromethyl)pyrazole-3-carboxamide] | 0.18 | ≥ 80 | – |
| Cc1cc(I)cc(C(N)=O)c1NC(=O)c1cc(C(F)(F)F)nn1-c1ncccc1Cl [Compound P27, N-(2-carbamoyl-4-iodo-6-methyl-phenyl)-2-(3-chloro-2-pyridyl)-5-(trifluoromethyl)pyrazole-3-carboxamide] | 0.18 | ≥ 80 | – |
| Cc1cc(C#N)cc(C(N)=O)c1NC(=O)c1cc(C(F)F)nn1-c1ncccc1Cl [Compound P28, N-(2-carbamoyl-4-cyano-6-methyl-phenyl)-2-(3-chloro-2-pyridyl)-5-(difluoromethyl)pyrazole-3-carboxamide] | – | ≥ 80 | – |
| Cc1cc(C#N)cc(C(N)=O)c1NC(=O)c1cc(Br)nn1-c1ncccc1Cl [Compound P30, 5-bromo-N-(2-carbamoyl-4-cyano-6-methyl-phenyl)-2-(3-chloro-2-pyridyl) pyrazole-3-carboxamide] | 0.39 | ≥ 80 | – |
| Cc1cc(C#N)cc(C(N)=O)c1NC(=O)c1cc(OCC(F)(F)F)nn1-c1ncccc1Cl [Compound P32, N-(2-carbamoyl-4-cyano-6-methyl-phenyl)-2-(3-chloro-2-pyridyl)-5-(2,2,2-trifluoroethoxy)pyrazole-3-carboxamide] | – | ≥ 80 | – |
| NC(=O)c1cc(Br)cc(F)c1NC(=O)c1cc(C(F)(F)F)nn1-c1ncccc1Cl [Compound P42, N-(4-bromo-2-carbamoyl-6-fluoro-phenyl)-2-(3-chloro-2-pyridyl)-5-(trifluoromethyl)pyrazole-3-carboxamide] | – | – | ≥ 80 |
| NC(=O)c1cc(Br)cc(Cl)c1NC(=O)c1cc(Cn2nnc(-c3ccc(C(F)(F)F)cc3)n2)nn1-c1ncccc1Cl [Compound P44, N-(4-bromo-2-carbamoyl-6-chloro-phenyl)-2-(3-chloro-2-pyridyl)-5-[[5-[4-(trifluoromethyl)phenyl]tetrazol-2-yl]methyl]pyrazole-3-carboxamide] | – | ≥ 80 | – |
| NC(=O)c1cc(Cl)cc(Br)c1NC(=O)c1cc(Cn2ncc(C(F)(F)F)n2)nn1-c1ncccc1Cl [Compound P52, N-(2-bromo-6-carbamoyl-4-chloro-phenyl)-2-(3-chloro-2-pyridyl)-5-[[4-(trifluoromethyl)triazol-2-yl]methyl] pyrazole-3-carboxamide] | – | – | ≥ 80 |
| Cc1cc(Cl)cc(C(N)=O)c1NC(=O)c1cc(OCC(F)F)nn1-c1ncccc1Cl [Compound P56, N-(2-carbamoyl-4-chloro-6-methyl-phenyl)-2-(3-chloro-2-pyridyl)-5-(2,2-difluoroethoxy)pyrazole-3-carboxamide] | – | – | ≥ 80 |
| NC(=O)c1cc(Cl)cc(Br)c1NC(=O)c1cc(Cn2nnc(-c3ccc(C(F)(F)F)cc3)n2)nn1-c1ncccc1Cl [Compound P57, N-(2-bromo-6-carbamoyl-4-chloro-phenyl)-2-(3-chloro-2-pyridyl)-5-[[5-[4-(trifluoromethyl)phenyl]tetrazol-2-yl]methyl]pyrazole-3-carboxamide] | – | ≥ 80 | – |
| NC(=O)c1cc(I)cc(Cl)c1NC(=O)c1cc(C(F)(F)F)nn1-c1ncccc1Cl [Compound P60, N-(2-carbamoyl-6-chloro-4-iodo-phenyl)-2-(3-chloro-2-pyridyl)-5-(trifluoromethyl)pyrazole-3-carboxamide] | – | – | ≥ 80 |
| NC(=O)c1cc(I)cc(Cl)c1NC(=O)c1cc(Br)nn1-c1ncccc1Cl [Compound P61, 5-bromo-N-(2-carbamoyl-6-chloro-4-iodo-phenyl)-2-(3-chloro-2-pyridyl) pyrazole-3-carboxamide] | – | – | ≥ 80 |
| Cc1cc(I)cc(C(N)=O)c1NC(=O)c1cc(Cn2nnc(-c3ccc(C(F)(F)F)cc3)n2)nn1-c1ncccc1Cl [Compound P62, N-(2-carbamoyl-4-iodo-6-methyl-phenyl)-2-(3-chloro-2-pyridyl)-5-[[5-[4-(trifluoromethyl)phenyl]tetrazol-2-yl]methyl]pyrazole-3-carboxamide] | – | ≥ 80 | – |
| NC(=O)c1cc(I)cc(F)c1NC(=O)c1cc(Br)nn1-c1ncccc1Cl [Compound P65, 5-bromo-N-(2-carbamoyl-6-fluoro-4-iodo-phenyl)-2-(3-chloro-2-pyridyl) pyrazole-3-carboxamide] | – | – | ≥ 80 |
| Cc1cc(C#N)cc(C(N)=O)c1NC(=O)c1cc(I)nn1-c1ncccc1Cl [Compound P66, N-(2-carbamoyl-4-cyano-6-methyl-phenyl)-2-(3-chloro-2-pyridyl)-5-iodo-pyrazole-3-carboxamide] | – | – | ≥ 80 |

From patent US20240308988A1, “Method For Controlling Diamide Resistant Pests and Compounds Therefor” (priority 2021, published 2024)
